ChEMBL document CHEMBL1134967, “Identification of novel inhibitors of fibroblast growth factor (FGF-2) binding to heparin and endothelial cell survival from a structurally diverse carbohybrid library” (Bioorg Med Chem Lett, 2002)
Several values for one entry are separate records, joined by “and”; a condition that tells them apart may be missing. Identical values can stand only once.

Experiments:
[1] = target: T1, Fibroblast growth factor 2 (Homo sapiens, UniProt P09038); experiment: 25% inhibition of FGF-2 binding to heparin-albumin by ELISA
T1 sequence (P09038 143-288 limits assumed): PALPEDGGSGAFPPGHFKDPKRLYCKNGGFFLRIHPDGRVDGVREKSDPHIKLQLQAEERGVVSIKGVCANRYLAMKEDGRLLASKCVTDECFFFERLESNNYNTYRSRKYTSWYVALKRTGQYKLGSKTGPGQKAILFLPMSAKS

[2] = target: T1, Fibroblast growth factor 2; experiment: Inhibition of Fibroblast growth factor 2 binding to heparin-albumin in ELISA
[3] = target: T1, Fibroblast growth factor 2; experiment: 23% inhibition of FGF-2 binding to heparin-albumin by ELISA
[4] = target: T1, Fibroblast growth factor 2; experiment: 24% inhibition of FGF-2 binding to heparin-albumin by ELISA

## O=C(NC1OC(C(=O)O)C(O)C(O)C1O)c1ccc(F)c(F)c1 (stereo not given)
[1]
  IC50: 33000 nM
[2]
  Imax: 39%

## O=C(O)[C@@H]1O[C@@H](OCCN2C(=O)CCC2=O)[C@@H](O)[C@@H](O)[C@@H]1O
[1]
  IC50: < 313 nM and 340 nM
[2]
  Imax: 25%

## COc1cc(C(=O)NC2OC(C(=O)O)C(O)C(O)C2O)cc(OC)c1OC (stereo not given)
[3]
  IC50: 150 nM
[2]
  Imax: 23%

## O=C(NC1OC(C(=O)O)C(O)C(O)C1O)c1cccs1 (stereo not given)
[2]
  Imax: 40%

## O=C(COc1ccc(Cl)cc1Cl)NC1OC(C(=O)O)C(O)C(O)C1O (stereo not given)
[4]
  IC50: 25.2 nM
[2]
  Imax: 24%

## O=C(NC1OC(C(=O)O)C(O)C(O)C1O)c1ccncc1 (stereo not given)
[2]
  Imax: 45%
